Patent US20250041387A1, “POLYPEPTIDE SEQUENCE OF KDM6B AND APPLICATION OF KDM6B IN REGULATING AND CONTROLLING FUNCTION OF MESENCHYMAL STEM CELL” (BEIJING STOMATOLOGICAL HOSPITAL, CAPITAL MEDICAL UNIVERSITY, priority 2021, published 2025)

Assays:
[1] = biological target: KDM6B/WDR5 protein complex (Homo sapiens, UniProt P61964); test: Co-IP of KDM6B/WDR5 complex in bone marrow mesenchymal stem cells; format: cell-based; set-up: endogenous in cells; host or cells: bone marrow mesenchymal stem cells; conditions: FIG. 3C
Method: Protein was extracted from cells of knockout group and overexpression group using IP lysate. The knockout group cells SCAPs-Scramsh and SCAPs-KDM6Bsh, SCAPs-Scramsh and SCAPs-WDR5sh, BMSCs-Scramsh and BMSCs-WDR5sh were added with KDM6B antibody, WDR5 antibody, and IgG antibody, respectively, and then rotated on a shaker at 4° C. overnight. On the next day, the cells were added with Protein A/G beads and rotated on a rotary shaker at 4° C. for 2 hours. A complex of protein-antibody-agarose bead was formed, and the formation of a protein complex of KDM6B and WDR5WB was detected by WB. The overexpression group cells SCAPs-Vector, SCAPs-HA-KDM6B, SCAPs-HA-KDM6B-mut102, and SCAPs-HA-KDM6B-mut114 were added with ProteinA/G beads with HA antibody, and cells SCAPs Vector and SCAPs-Myc-WDR5 were added with ProteinA/G beads with Myc antibody. All cells were incubated overnight to form a complex of protein-antibody-agarose bead. The formation of a protein complex of KDM6B and WDR5 was detected by WB method. • (2) Grouping: Input group (loading amount of 25 μg); antibody group (loading amount of 800 μg, 2 μg of antibody); IgG group (loading amount of 800 μg, 2 μg of antibody). Samples were diluted with lysate. • (3) Preparation of protein A/G beads
The protein A/G beads were washed 4 times with PBS, and centrifuged at 2000 g for 2 minutes. The supernatant was carefully collected, and added with PBS to achieve a content of protein A/G beads of 50%. 30 μL of protein A/G beads was added to each tube, and rotated at 4 degrees overnight. • (4) The samples were centrifuged at 5000 rpm for 30 s at 4° C., and washed 4-5 times with PBS by inverted up and down. Then the samples were centrifuged, and the supernatant was discarded. The samples were added with 30 μL of 2× loading buffer, and placed at 100° C. for 5 minutes. • (5) The supernatant was subjected to electrophoresis.

[2] = biological target: WDR5 synthetic protein (Homo sapiens, UniProt P61964); test: Polypeptide microarray of KDM6B incubated with biotin-labeled WDR5; format: binding; conditions: FIG. 3A, B; positive = optical density more than 30%
Excerpt: • (1) Synthesis of polypeptide chip: A polypeptide chip was designed by overlapping and synthesized according to the sequence of KDM6B protein, with a total of two arrays. • (2) Synthesis of polypeptide microarray: A matrix membrane was activated, and placed on a fully automated polypeptide chip synthesizer. A Fmoc-amino acid solution was automatically transferred to a specific position on the activated membrane according to the set procedure, to react with the membrane. The membrane was immersed sequentially into the blocking solution I and II to block side chains, and washed with dimethyl formamide (DMF). The membrane was placed in a deprotection solution to remove the Fmoc protective group at the amino-terminal, then washed with DMF, and dried with ethanol. The above steps were repeated until all polypeptide microarrays were completely synthesized. After the synthesis was completed, the protective groups of the side chains were removed with specific organic reagents. […] The control group was incubated with the blocking solution. • (6) Streptavidin-HRP incubation: The reaction reagent Streptavidin-HRP (High Sensitivity Streptavidin-HRP (prod #21133)) was diluted with the blocking solution in an ratio of 1:10000, and then the polypeptide microarray chip was incubated with 5 ml of the diluted Streptavidin-HRP under shaking at room temperature for 2 hours, and washed. • (7) Color development: ECL luminescence reagent was added, and digital imaging was performed on a Chempchemi digital imager. • (8) Scan of polypeptide microarray chip and data analysis of color spot: The colored polypeptide microarray chip was imaged at 425 nm using the Chempchemi Imaging System with 200 s exposure. The optical density of colored spots was analyzed using TotalLab image analysis software, and the optical density of each colored spot was calculated using the “Spot Edge Average” algorithm in the software, with the optical density of the surrounding background of each colored spot as a reference. […]

## FITC-(Acp)-IVPMIHVSWNVARTVYGRKKRRQRRR [peptide 152]
[1]
  opening/blocking of the binding of KDM6B/WDR5 protein complex (Co-IP): could not effectively block the binding
[2]
  binding degree to WDR5 on polypeptide microarray (optical density of spots): higher binding degree
